pIC50: −log10 of the molar value. Blank lines part the entries; values can stand above or below the compound they belong to.
Legend:
MDA-MB-231 [1] = assay: Cytotoxicity against human MDA-MB-231 cells assessed as growth inhibition at 40 uM after 72 hrs by MTT assay relative to control; assay type: functional; conditions: MDA-MB-231, 72 h, read-out: GI
HepG2 [2] = assay: Cytotoxicity against human HepG2 cells assessed as growth inhibition at 40 uM after 72 hrs by MTT assay relative to control; assay type: functional; conditions: HepG2, 72 h, read-out: GI
MDA-MB-231 [3] = assay: Cytotoxicity against human MDA-MB-231 cells assessed as growth inhibition at 20 uM after 72 hrs by MTT assay relative to control; assay type: functional; conditions: MDA-MB-231, 72 h, read-out: GI
HepG2 [4] = assay: Cytotoxicity against human HepG2 cells assessed as growth inhibition at 20 uM after 72 hrs by MTT assay relative to control; assay type: functional; conditions: HepG2, 72 h, read-out: GI
MDA-MB-231 [5] = assay: Cytotoxicity against human MDA-MB-231 cells assessed as growth inhibition at 10 uM after 72 hrs by MTT assay relative to control; assay type: functional; conditions: MDA-MB-231, 72 h, read-out: GI
HepG2 [6] = assay: Cytotoxicity against human HepG2 cells assessed as growth inhibition at 10 uM after 72 hrs by MTT assay relative to control; assay type: functional; conditions: HepG2, 72 h, read-out: GI
MDA-MB-231 [7] = assay: Cytotoxicity against human MDA-MB-231 cells assessed as growth inhibition after 72 hrs by MTT assay; assay type: functional, cell-based; conditions: MDA-MB-231, 72 h
HepG2 [8] = assay: Cytotoxicity against human HepG2 cells assessed as growth inhibition after 72 hrs by MTT assay; assay type: functional, cell-based; conditions: HepG2, 72 h
A549 = assay: Cytotoxicity against human A549 cells assessed as growth inhibition after 72 hrs by MTT assay; assay type: functional, cell-based; conditions: A549, 72 h
[9] = Selectivity ratio of IC50 for human HepG2 cells to IC50 for human MDA-MB-231 cells; assay type: functional
[10] = Selectivity ratio of IC50 for human A549 cells to IC50 for human MDA-MB-231 cells; assay type: functional
[11] = Chemical stability in PBS at pH 6 at 1000 uM after 3 to 24 hrs by HPLC method; assay type: physicochemical; conditions: buffer, pH 6, 1000 µM
[12] = Chemical stability in PBS at pH 8 at 1000 uM after 24 hrs by HPLC method; assay type: physicochemical; conditions: buffer, pH 8, 24 h
[13] = Chemical stability in PBS at pH 7.4 assessed as parent compound remaining at 1000 uM after 24 hrs by HPLC method; assay type: physicochemical; conditions: read-out: Stability
[14] = Drug metabolism in human MDA-MB-231 cells assessed as nitric oxide release at 30 uM after 0.5 to 30 hrs by Griess assay; assay type: ADME, cell-based; conditions: mda-mb-231, 30 µM
[15] = Drug degradation in PBS at pH 7.4 at 1000 uM after 24 hrs by HPLC method; assay type: physicochemical; conditions: read-out: Drug degradation
[16] = Drug degradation in PBS at pH 8 at 1000 uM after 24 hrs by HPLC method; assay type: physicochemical; conditions: read-out: Drug degradation

SMILES: CC1=C(CCC(=O)O)C(=O)c2c(O)cccc2C1=O
inhibition of growth at 40 µM (MDA-MB-231 [1]): 5%
inhibition of growth at 40 µM (HepG2 [2]): 20.3%

SMILES: CC1=C(CCCC(=O)O)C(=O)c2c(O)cccc2C1=O
inhibition of growth at 20 µM (MDA-MB-231 [3]): 6.1%
inhibition of growth at 20 µM (HepG2 [4]): 23.2%

SMILES: CC1=C(CC(=O)OCCCOc2no[n+]([O-])c2S(=O)(=O)c2ccccc2)C(=O)c2c(O)cccc2C1=O
inhibition of growth at 10 µM (MDA-MB-231 [5]): 97.7%
inhibition of growth at 10 µM (HepG2 [6]): 97.2%
pIC50 (MDA-MB-231 [7]): 5.75
pIC50 (HepG2 [8]): 5.36
pIC50 (A549): 5.15
Ratio IC50 [9]: 2.5
Ratio IC50 [10]: 4

Stability [11]: Stable
Stability [12]: Stable
remaining at 24 h, 1000 µM [13]: > 98%
SMILES: CC1=C(CCC(=O)OCCOc2no[n+]([O-])c2S(=O)(=O)c2ccccc2)C(=O)c2c(O)cccc2C1=O
inhibition of growth at 10 µM (MDA-MB-231 [5]): 97.6%
inhibition of growth at 10 µM (HepG2 [6]): 95.7%
pIC50 (MDA-MB-231 [7]): 5.92
pIC50 (HepG2 [8]): 5.53
pIC50 (A549): 5.03
Ratio IC50 [9]: 2.5
Ratio IC50 [10]: 7.7

Drug metabolism [14]: Metabolite_Detected
SMILES: CC1=C(CCC(=O)OCC(C)COc2no[n+]([O-])c2S(=O)(=O)c2ccccc2)C(=O)c2c(O)cccc2C1=O (centres undefined)
inhibition of growth at 10 µM (MDA-MB-231 [5]): 97.4%
inhibition of growth at 10 µM (HepG2 [6]): 73.4%
pIC50 (MDA-MB-231 [7]): 5.57
pIC50 (HepG2 [8]): 5.17
pIC50 (A549): 4.74
Ratio IC50 [9]: 2.5
Ratio IC50 [10]: 6.8

SMILES: CC1=C(C(C)CC(=O)OCCCCOc2no[n+]([O-])c2S(=O)(=O)c2ccccc2)C(=O)c2c(O)cccc2C1=O (centres undefined)
inhibition of growth at 10 µM (MDA-MB-231 [5]): 92.7%
inhibition of growth at 10 µM (HepG2 [6]): 89.2%
pIC50 (MDA-MB-231 [7]): 5.70
pIC50 (HepG2 [8]): 5.37
pIC50 (A549): 4.71
Ratio IC50 [9]: 2.1
Ratio IC50 [10]: 10

SMILES: CC1=C(CCCC(=O)OCCOc2no[n+]([O-])c2S(=O)(=O)c2ccccc2)C(=O)c2c(O)cccc2C1=O
inhibition of growth at 10 µM (MDA-MB-231 [5]): 97.9%
inhibition of growth at 10 µM (HepG2 [6]): 95.1%
pIC50 (MDA-MB-231 [7]): 5.82
pIC50 (HepG2 [8]): 5.38
pIC50 (A549): 4.99
Ratio IC50 [9]: 2.7
Ratio IC50 [10]: 6.7

SMILES: CC1=C(CC(=O)O)C(=O)c2c(O)cccc2C1=O
inhibition of growth at 40 µM (MDA-MB-231 [1]): 2.4%
inhibition of growth at 40 µM (HepG2 [2]): 11%

Drug metabolism [14]: Metabolite_Detected
SMILES: CC1=C(C(C)CC(=O)OCC(C)COc2no[n+]([O-])c2S(=O)(=O)c2ccccc2)C(=O)c2c(O)cccc2C1=O (centres undefined)
inhibition of growth at 10 µM (MDA-MB-231 [5]): 94.4%
inhibition of growth at 10 µM (HepG2 [6]): 91.5%
pIC50 (MDA-MB-231 [7]): 5.68
pIC50 (HepG2 [8]): 5.43
pIC50 (A549): 4.89
Ratio IC50 [9]: 1.8
Ratio IC50 [10]: 6.1

Drug metabolism [14]: Metabolite_Detected
SMILES: CC1=C(CC(=O)OCCCCOc2no[n+]([O-])c2S(=O)(=O)c2ccccc2)C(=O)c2c(O)cccc2C1=O
inhibition of growth at 10 µM (MDA-MB-231 [5]): 96.3%
inhibition of growth at 10 µM (HepG2 [6]): 87.2%
pIC50 (MDA-MB-231 [7]): 5.28
pIC50 (HepG2 [8]): 5.11
pIC50 (A549): < 4.70
Ratio IC50 [9]: 1.5
Ratio IC50 [10]: >3.8

Drug metabolism [14]: Metabolite_Detected
SMILES: CC1=C(CCC(=O)OCCCOc2no[n+]([O-])c2S(=O)(=O)c2ccccc2)C(=O)c2c(O)cccc2C1=O
inhibition of growth at 10 µM (MDA-MB-231 [5]): 96.8%
inhibition of growth at 10 µM (HepG2 [6]): 95.1%
pIC50 (MDA-MB-231 [7]): 5.37
pIC50 (HepG2 [8]): 5.17
pIC50 (A549): < 4.70
Ratio IC50 [9]: 1.6
Ratio IC50 [10]: >4.7

SMILES: CC1=C(CC(=O)OCCOc2no[n+]([O-])c2S(=O)(=O)c2ccccc2)C(=O)c2c(O)cccc2C1=O
inhibition of growth at 10 µM (MDA-MB-231 [5]): 97.3%
inhibition of growth at 10 µM (HepG2 [6]): 93.3%
pIC50 (MDA-MB-231 [7]): 5.49
pIC50 (HepG2 [8]): 5.21
pIC50 (A549): 4.73
Ratio IC50 [9]: 1.9

Drug metabolism [14]: Metabolite_Detected
SMILES: CC1=C(CC(=O)OCC(C)COc2no[n+]([O-])c2S(=O)(=O)c2ccccc2)C(=O)c2c(O)cccc2C1=O (centres undefined)
inhibition of growth at 10 µM (MDA-MB-231 [5]): 97.3%
inhibition of growth at 10 µM (HepG2 [6]): 96.6%
pIC50 (MDA-MB-231 [7]): 5.82
pIC50 (HepG2 [8]): 5.52
pIC50 (A549): 5.23
Ratio IC50 [9]: 2
Ratio IC50 [10]: 3.9

Drug metabolism [14]: Metabolite_Detected
SMILES: CC1=C(C(C)CC(=O)OCCCOc2no[n+]([O-])c2S(=O)(=O)c2ccccc2)C(=O)c2c(O)cccc2C1=O (centres undefined)
inhibition of growth at 10 µM (MDA-MB-231 [5]): 95.3%
inhibition of growth at 10 µM (HepG2 [6]): 92.7%
pIC50 (MDA-MB-231 [7]): 5.62
pIC50 (HepG2 [8]): 5.36
pIC50 (A549): 4.86
Ratio IC50 [9]: 1.8
Ratio IC50 [10]: 5.8

Drug metabolism [14]: Metabolite_Detected
SMILES: CC1=C(CCC(=O)OCCCCOc2no[n+]([O-])c2S(=O)(=O)c2ccccc2)C(=O)c2c(O)cccc2C1=O
inhibition of growth at 10 µM (MDA-MB-231 [5]): 97.6%
inhibition of growth at 10 µM (HepG2 [6]): 95.4%
pIC50 (MDA-MB-231 [7]): 5.91
pIC50 (HepG2 [8]): 5.48
pIC50 (A549): 5.08
Ratio IC50 [9]: 2.7
Ratio IC50 [10]: 6.7

SMILES: CC(=O)c1cc2c(o1)C(=O)c1ccccc1C2=O [NAPABUCASIN]
pIC50 (MDA-MB-231 [7]): 6.47
pIC50 (HepG2 [8]): 6.18
pIC50 (A549): 6.13
Ratio IC50 [9]: 1.8
Ratio IC50 [10]: 2.2

SMILES: CC1=CC(=O)c2c(O)cccc2C1=O [PLUMBAGIN]
inhibition of growth at 10 µM (MDA-MB-231 [5]): 32.8%
inhibition of growth at 10 µM (HepG2 [6]): 41%
pIC50 (MDA-MB-231 [7]): 4.85
pIC50 (HepG2 [8]): 4.97
pIC50 (A549): 4.91
Ratio IC50 [9]: 0.7
Ratio IC50 [10]: 0.9
Stability [11]: Stable
degraded at 24 h, 1000 µM [15]: > 95%
degraded at 24 h, 1000 µM [16]: > 95%
